Several values for one entry are separate records, joined by “and”; a condition that tells them apart may be missing. Equal entries are not always repeated. Toxic doses and inconclusive results are not listed. Rule for the calls: active = survival T/C of 150% or more; inactive = T/C below 125% in these data.
Tested on: P388 leukemia ip, CD2F1 mice, survival T/C
Experiment: NCI In Vivo Anticancer Drug Screen. Data for tumor model P388 Leukemia (intraperitoneal) in CD2F1 (CDF1) mice
Conditions: endpoint: median survival time, higher = longer survival
Procedure, shortened: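 Mice carrying the transplanted tumor received test compound or vehicle. Survival was recorded in each group, and the value is the treated-group measurement divided by that of the vehicle-treated control group.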

[1] = dose: 60.0 mg/kg/injection, schedule: Q01DX005 (ip), vehicle: saline with Tween-80
[2] = dose: 120.0 mg/kg/injection, schedule: Q01DX005 (ip), vehicle: saline with Tween-80
[3] = dose: 240.0 mg/kg/injection, schedule: Q01DX005 (ip), vehicle: saline with Tween-80
[4] = dose: 50.0 mg/kg/injection, schedule: Q01DX005 (ip), vehicle: saline with Tween-80
[5] = dose: 100.0 mg/kg/injection, schedule: Q01DX005 (ip), vehicle: saline with Tween-80
[6] = dose: 200.0 mg/kg/injection, schedule: Q01DX005 (ip), vehicle: saline with Tween-80
[7] = dose: 50.0 mg/kg/injection, schedule: Q01DX009 (ip), vehicle: saline
[8] = dose: 100.0 mg/kg/injection, schedule: Q01DX009 (ip), vehicle: saline
[9] = dose: 200.0 mg/kg/injection, schedule: Q01DX009 (ip), vehicle: saline
[10] = dose: 50.0 mg/kg/injection, schedule: Q01DX005 (ip), vehicle: Klucel (hydroxypropylcellulose) (HPC)
[11] = dose: 100.0 mg/kg/injection, schedule: Q01DX005 (ip), vehicle: Klucel (hydroxypropylcellulose) (HPC)
[12] = dose: 200.0 mg/kg/injection, schedule: Q01DX005 (ip), vehicle: Klucel (hydroxypropylcellulose) (HPC)
[13] = dose: 50.0 mg/kg/injection, schedule: Q01DX009 (ip), vehicle: Klucel (hydroxypropylcellulose) (HPC)
[14] = dose: 100.0 mg/kg/injection, schedule: Q01DX009 (ip), vehicle: Klucel (hydroxypropylcellulose) (HPC)
[15] = dose: 200.0 mg/kg/injection, schedule: Q01DX009 (ip), vehicle: Klucel (hydroxypropylcellulose) (HPC)
[16] = dose: 25.0 mg/kg/injection, schedule: Q01DX005 (ip), vehicle: Klucel (hydroxypropylcellulose) (HPC)

Measured: T/C

C/C=C1/CN2C3C[C@H]1C(CO)(C(=O)OC)[C@H]2Cc1c3n(C)c2ccccc12 (stereo partly specified)
inactive: dose: 10.0 mg/kg/injection, schedule: Q01DX009 (ip), vehicle: Klucel (hydroxypropylcellulose) (HPC) 100 % of control | dose: 20.0 mg/kg/injection, schedule: Q01DX009 (ip), vehicle: Klucel (hydroxypropylcellulose) (HPC) 101 % of control | dose: 40.0 mg/kg/injection, schedule: Q01DX009 (ip), vehicle: Klucel (hydroxypropylcellulose) (HPC) 104 % of control | dose: 80.0 mg/kg/injection, schedule: Q01DX009 (ip), vehicle: Klucel (hydroxypropylcellulose) (HPC) 100 % of control | dose: 160.0 mg/kg/injection, schedule: Q01DX009 (ip), vehicle: Klucel (hydroxypropylcellulose) (HPC) 94 % of control

COc1cccc2c1C(=O)c1c(O)c3c(c(O)c1C2=O)C[C@@](O)(C(=O)CSc1ccccc1)C[C@@H]3OC1CC(N)C(O)C(C)O1 (stereo partly specified)
inactive: dose: 0.78 mg/kg/injection, schedule: Q01DX009 (ip), vehicle: water 122 % of control | dose: 12.5 mg/kg/injection, schedule: Q01DX009 (ip), vehicle: water 99 % of control and 91 % of control

CC(C)C(NC(=O)C(=O)c1c[nH]c2ccc(Cl)cc12)C(=O)O (stereo unspecified)
inactive: [1] 100 % of control | [2] 91 % of control | [3] 90 % of control

BrC=C(Br)Br
inactive: [4] 104 % of control | [5] 100 % of control | [6] 95 % of control

O=C1CCCCC=C1Cl
inactive: [7] 96 % of control | [8] 98 % of control | [9] 108 % of control

COc1cc2c(cc1C(C)c1cc(C)c(OC)c(C)c1)OCO2 (stereo unspecified)
inactive: [4] 100 % of control | [5] 106 % of control | [6] 101 % of control

COC1=CC(=O)C(c2cc(OC(C)=O)c(OC)cc2OC(C)=O)=CC1=O
inactive: dose: 6.0 mg/kg/injection, schedule: Q01DX005 (ip), vehicle: saline + Tween-80 + alcohol 108 % of control | dose: 12.0 mg/kg/injection, schedule: Q01DX005 (ip), vehicle: saline + Tween-80 + alcohol 100 % of control | dose: 25.0 mg/kg/injection, schedule: Q01DX005 (ip), vehicle: saline + Tween-80 + alcohol 105 % of control

O=C(O)C1=CC2C=C(Cl)C=CC2OC1=O (stereo unspecified)
inactive: [1] 100 % of control | [2] 100 % of control

CN1CNC(=O)c2n[nH]nc21
inactive: dose: 12.5 mg/kg/injection, schedule: Q04DX002 (ip), vehicle: Klucel (hydroxypropylcellulose) (HPC) 99 % of control | dose: 25.0 mg/kg/injection, schedule: Q04DX002 (ip), vehicle: Klucel (hydroxypropylcellulose) (HPC) 108 % of control | dose: 50.0 mg/kg/injection, schedule: Q04DX002 (ip), vehicle: Klucel (hydroxypropylcellulose) (HPC) 100 % of control and 102 % of control

COC(=O)C1=C(C)OC2OCCC12 (stereo unspecified)
inactive: [1] 110 % of control | [2] 101 % of control | [3] 102 % of control

CC(=O)NC(C)CC1=CC(=O)C(C)=CC1=O (stereo unspecified)
inactive: dose: 25.0 mg/kg/injection, schedule: Q01DX001 (ip), vehicle: Klucel (hydroxypropylcellulose) (HPC) 95 % of control

CCOC(=O)/C(C(=N)c1nc(C)c(C(=O)OCC)c(C(N)=O)n1)=C(/C)O
inactive: [10] 113 % of control | [11] 102 % of control and 90 % of control | [12] 90 % of control and 94 % of control

CCCCN1CSC2CCCCC21 (stereo unspecified)
inactive: dose: 25.0 mg/kg/injection, schedule: Q01DX005 (ip), vehicle: saline 98 % of control | dose: 50.0 mg/kg/injection, schedule: Q01DX005 (ip), vehicle: saline 111 % of control and 93 % of control | dose: 100.0 mg/kg/injection, schedule: Q01DX005 (ip), vehicle: saline 104 % of control and 111 % of control | dose: 200.0 mg/kg/injection, schedule: Q01DX005 (ip), vehicle: saline 121 % of control

COc1cc2c(c(OC)c1OC)CCCC2=O
inactive: [13] 111 % of control | [14] 113 % of control | [15] 117 % of control

C=CC(=O)N1CCCC1C(=O)O (stereo unspecified)
inactive: [7] 100 % of control | [8] 109 % of control | [9] 100 % of control

COC(=O)Nc1cn2c(n1)sc1ccccc12
inactive: dose: 100.0 mg/kg/injection, schedule: Q01DX001 (ip), vehicle: saline with Tween-80 100 % of control | dose: 200.0 mg/kg/injection, schedule: Q01DX001 (ip), vehicle: saline with Tween-80 96 % of control | dose: 400.0 mg/kg/injection, schedule: Q01DX001 (ip), vehicle: saline with Tween-80 91 % of control

CCN(CC)C(=O)c1c(C(=O)OC)c(C)n(NC(=O)c2cccc(C)c2)c1C
inactive: [1] 90 % of control | [2] 87 % of control

CCOC(=O)NNC1=C(CC(=O)c2ccccc2)C(=O)CC(C)(C)C1
inactive: [13] 101 % of control | [14] 102 % of control | [15] 109 % of control

CNC(=O)OCc1c(-c2ccccc2)c(-c2ccccc2)n(-c2ccc(OC)cc2)c1COC(=O)NC
inactive: dose: 12.5 mg/kg/injection, schedule: Q01DX009 (ip), vehicle: distilled water + Tween-80 106 % of control | dose: 25.0 mg/kg/injection, schedule: Q01DX009 (ip), vehicle: distilled water + Tween-80 103 % of control and 119 % of control | dose: 50.0 mg/kg/injection, schedule: Q01DX009 (ip), vehicle: distilled water + Tween-80 102 % of control and 119 % of control | dose: 100.0 mg/kg/injection, schedule: Q01DX009 (ip), vehicle: distilled water + Tween-80 116 % of control and 124 % of control

C=C1C2CC[C@H]3C4(C)CCCC(C)(C(=O)O)[C@H]4CCC3(C2)[C@@H]1OC(C)=O (stereo partly specified)
inactive: dose: 3.5 mg/kg/injection, schedule: Q01DX005 (ip), vehicle: Klucel (hydroxypropylcellulose) (HPC) 108 % of control | dose: 7.0 mg/kg/injection, schedule: Q01DX005 (ip), vehicle: Klucel (hydroxypropylcellulose) (HPC) 97 % of control | dose: 14.0 mg/kg/injection, schedule: Q01DX005 (ip), vehicle: Klucel (hydroxypropylcellulose) (HPC) 100 % of control | [16] 88 % of control | dose: 28.0 mg/kg/injection, schedule: Q01DX005 (ip), vehicle: Klucel (hydroxypropylcellulose) (HPC) 94 % of control | [10] 90 % of control | [11] 90 % of control

Cc1ccc(Cl)cc1NS(=O)(=O)c1ccc2ccccc2c1
inactive: dose: 100.0 mg/kg/injection, schedule: Q04DX003 (ip), vehicle: saline with Tween-80 100 % of control | dose: 200.0 mg/kg/injection, schedule: Q04DX003 (ip), vehicle: saline with Tween-80 109 % of control | dose: 400.0 mg/kg/injection, schedule: Q04DX003 (ip), vehicle: saline with Tween-80 104 % of control

CCCCCCCCCCCCCCCCCCN(CCCCCCCCCCCCCCCCCC)c1ccc(/C=C/c2ccnc3ccccc23)cc1
inactive: dose: 25.0 mg/kg/injection, schedule: Q01DX009 (ip), vehicle: Klucel (hydroxypropylcellulose) (HPC) 104 % of control | [13] 95 % of control | [14] 95 % of control | [15] 104 % of control

CNCC1c2ccccc2CSc2c(OC)cccc21 (stereo unspecified)
inactive: dose: 6.25 mg/kg/injection, schedule: Q01DX005 (ip), vehicle: Klucel (hydroxypropylcellulose) (HPC) 101 % of control | dose: 12.5 mg/kg/injection, schedule: Q01DX005 (ip), vehicle: Klucel (hydroxypropylcellulose) (HPC) 98 % of control | [16] 98 % of control

COc1cccc(C2OC3=C(Nc4ccc([N+](=O)[O-])cc4N3)C2=O)c1 (stereo unspecified)
inactive: [10] 102 % of control | [11] 101 % of control | [12] 96 % of control

Source: PubChem BioAssay AID330 (DTP/NCI, 2004)
